Assay [1] deals with HEL cells with JAK2V617F activation mutation. The assay is described as follows: CTG cell proliferation assay, HEL cells. Type of assay: cell-based, human. As to the method: (§1) The effects of compound 1 on proliferation of human myeloproliferative tumor cells HEL and SET-2 cells with JAK2V617F activation mutation were tested using CTG assay in this example to evaluate half inhibitory rate (IC50) of compound 1 on HEL and SET-2 cell proliferation.
(§2) • a) HEL cells were cultured in RPMI 1640 medium containing 1% PS and 10% FBS. […] The cells were incubated in a humidified incubator with 5% carbon dioxide (CO2) at 37° C.
(§3) • a) Cells were harvested upon reaching a certain density. • b) Cells were resuspended in corresponding medium with a certain density. • c) 30 μL of cell suspension was added into each well of a 384-well plate. For HEL, the density was 1800 cells/well, and for SET-2, 2000 cells/well. • d) Cells were incubated overnight in a humidified incubator with 5% CO2 at 37° C.
(§4) The compounds were diluted with DMSO 6.67 fold from 20 mM to 3 mM, then 3-fold serial dilutions were conducted to make 10 concentrations for each compound. […]
(§5) • a) 30 μL CTG reagent (CelltiterGlo kit) was added to each well, and the plate was subjected to orbital shaking for 2 minutes, then incubated at room temperature in the dark for 30 minutes. • b) Luminescence values were obtained using Envision.
(§6) IC50 (the half maximal inhibitory concentration) was calculated with GraphPad Prism 8 software and following nonlinear fitting formula: […]

The subject of assay [2] is SET-2 cells with JAK2V617F activation mutation. The assay is described as follows: CTG cell proliferation assay, SET-2 cells. Type of assay: cell-based, human. How it is done:
as §1, §2, §3, §4, §5, §6

The test system of assay [3] is NF-κB transcriptional activity. The assay is described as follows: NF-κB reporter gene assay in HEK293 cells. It is filed as cell-based. As to the method:
In present example, reporter gene assay was used to determine the inhibitory effect of compound 1 on NF-κB transcriptional activity in HEK293 cells, to evaluate the effect of the compound on NF-κB transcriptional activity.
• a) All compounds were 3-fold serial diluted from 10 mM for 10 doses in DMSO. • b) The positive compound CDDO-Me was 3-fold serial diluted from 10 mM for 10 doses in DMSO. • c) 1000×positive control ([…]) and 1000×negative control (100% DMSO) were prepared. • d) Compounds plate was sealed and shaked for 5 minutes.
• a) All cells were cultured following ATCC recommendations. […] Digestion was terminated with complete culture medium, and the cells were collected and counted. • d) A total of 6*10^6 HEK293T cells were seeded into a 100 mm cell culture dish. • e) The cells were then incubated overnight in a 5% CO2 incubator. […]
• a) The Britelite plus reagent were allowed to reach room temperature. • b) The 384-well assay plates (prepared at Step 3) were allowed to reach room temperature. • c) 25 μL Britelite plus reagent was added to each well of 384-well assay plate. • d) Luminescence values were recorded with Envision.
[formula] • RLU: relative luminescence units • RLUPositive: The average luminescence value of the blank controls. • RLUvehicle: The average luminescence value of the negative controls. • 5.2 IC50 calculating and compound dose-response curves fitting: […]
Background: In a reporter assay the amount or activity of a reporter protein is the signal.

For assay [4], the system named is IL-6 secretion in THP-1 cells. The assay is described as follows: IL-6 ELISA in THP-1 cell supernatants following LPS stimulation. Type of assay: cell-based, Human. How it is done: The Human IL-6 Valukine ELISA kit (purchased from R&D) was used to measure the IL-6 content in the cell supernatants by ELISA method in this example. The experimental procedures shown below were conducted to determine the effect of compound 1 on IL-6 secretion in THP-1 cell supernatants following LPS stimulation.
THP-1 cells were cultured in RPMI 1640 medium containing 1% PS and 10% FBS and 2-Mercaptoethanol (IX). The cells were incubated in a humidified incubator with 5% carbon dioxide (CO2) at 37° C. […]
• a) 50 μL medium was added to each well. • b) 100 μL CTG reagent (CelltiterGlo kit) was added to each well, and the plate was placed on a orbital shaker for 2 minutes, then placed at room temperature in dark conditions for 30 minutes, and then transferred to CTG plate. • c) The luminescence values were recorded with Envision.
IC50 (The half maximal inhibitory concentration) was calculated using GraphPad Prism 8 software with the following nonlinear fitting formula: […]
[formula] • b) IL-6 detection: X: Log value of Compound concentration, Y: IL-6 concentration (pg/mL) • IL-6 concentration was calculated based on the linear equation of standard dilution concentration and wavelength detection. […]
For orientation: ELISA stands for enzyme-linked immunosorbent assay.

[5] abbreviates: Homo sapiens, 72 h, CTG, read-out: IC50 for cell proliferation inhibition.

The structures appear in SMILES notation.

Turning to `Cc1nc2ncc(-c3cn(C)c(=O)c4[nH]ccc34)nc2n1Cc1ccc(C(F)(F)F)cc1` [Compound 1, 6-methyl-4-(2-methyl-1-(4-(trifluoromethyl)benzyl)-1H-imidazo[4,5-b]pyrazin-6-yl)-1H-py rrolo[2,3-c]pyridin-7(6H)-one], the “inhibitory effect on proliferation of HEL cells (in words)” value in assay [1] was “good inhibitory effect”. Moreover, the IC50 worked out at 154 nM in assay [1] (setting [5]); 104 nM in assay [2] (setting [5]); 148 nM in assay [3] (Homo sapiens, HEK293 cells with NF-κB reporter gene, 8 ng/ml TNFα, 16-20 h, read-out: IC50 for the inhibition of NF-κB transcriptional activity); 22.4 nM in assay [4] (Homo sapiens, THP-1 cells, LPS 4 μg/mL, read-out: IC50 for inhibition of IL-6 secretion in THP-1 cells). In addition, the “inhibitory effect on proliferation of SET-2 cells (in words)” value in assay [2] is “good inhibitory effect”. In assay [3] (HEK293 cells stably transfected with the NF-κB reporter gene), the “inhibition of the transcriptional activity of NF-κB (in words)” value is reported as “significantly inhibited”. Further, the “inhibition of IL-6 secretion (in words)” value in assay [4] (THP1 monocytes, LPS) is “significantly inhibited”.

For the origin of these results see patent US20240299380A1, “APPLICATION OF COMPOUND IN PREPARATION OF DRUG FOR TREATING MYELOFIBROSIS AND RELATED SYMPTOMS/SIGNS THEREOF, AND USE OF COMPOUND” (Betta Pharmaceuticals Co., Ltd, priority 2021, published 2024).
